In US20230173089A1, “Q-ER PEPTIDE” (Biotempt B.V., priority 2019, published 2023):

Experiments:
mTOR = conditions: cited from earlier work; for activity as activators of mTOR or inhibitors of autophagy compared with other amino acids: alone or in combination
[1] = system: non-obese diabetic (NOD) mouse; experiment: type 1 diabetes development in NOD mice; assay type: in vivo; conditions: 250 µg i.p. three times per week, female NOD mice from 14 weeks, max five weeks
Source text: The non-obese diabetic (NOD) mouse spontaneously develops type 1 diabetes (T1D) and has served as a model for understanding the genetic and immunological basis, and treatment, of T1D. NOD mice are used in these studies. Most diabetic NOD mice suffer from insulin deficiency diabetes, with the underlying cause of the pancreatic beta-cell loss or destruction most likely a result of an inflammatory process in the micro-vasculature surrounding endocrine beta-cell tissues and genetically accelerated autoimmunity is suspected. Diabetes is assessed by measurement of the venous blood glucose level using an Abbott Medisense Precision glucometer. Mice are considered diabetic after two consecutive glucose measurements ≥11 mmol/l (200 mg/dl). Onset of diabetes is dated from the first consecutive reading of ≥11 mmol/l. In vivo treatment: groups of 14 weeks-old female NOD mice (n=12 per group) are treated with synthetic peptide SEQ ID NO:5 (AQGVAPG), SEQ ID NO:6 (LQGVAPG), SEQ ID NO:7 (AQGVLPG), SEQ ID NO:8 (LQGVLPG) or vehicle (PBS), respectively. Treatment is done by injecting 250 µg peptide diluted in PBS three times per week intraperitoneally (i.p.). Control mice are treated with PBS only. The treatment is discontinued when all PBS treated NOD mice in the experiment have developed diabetes. This is generally at the age of 19 weeks. The peptide and PBS treatments are done for a maximum of five weeks. In instances of hyperglycaemia of ≥20 mmol/l the mice are killed to avoid prolonged discomfort. The remainder mice are kept alive up to the age of 35 weeks without any further treatment.

[2] = system: Wistar rats with hemorrhagic shock; experiment: hemorrhagic shock and resuscitation in rats (Example 15, SIRS); assay type: in vivo, rat; conditions: single injection 30 minutes after induction of hemorrhagic shock
Description: Severe hemorrhagic shock followed by resuscitation induces a massive inflammatory response, which may culminate into systemic inflammatory response syndrome, multiple organ dysfunction syndrome and finally death. Treatments that effectively prevent this inflammation are limited so far. […] Considering this powerful anti-inflammatory effect, it was investigated whether administration of 0.5 ml i.p. of synthetic heptapeptide SEQ ID NO:5 (AQGVAPG), SEQ ID NO:6 (LQGVAPG), SEQ ID NO:7 (AQGVLPG), SEQ ID NO:8 (LQGVLPG), dissolved in 0.9% NaCl at a concentration of 25 mg/ml, or vehicle (0.9% NaCl), respectively, during the SIRS-phase of hemorrhagic shock, is able to attenuate the inflammatory response associated with this condition.
Hemorrhagic shock is induced in groups of 6 rats for 60 minutes by blood withdrawal until a mean arterial pressure of 40 mmHg is reached. Thirty minutes after induction of hemorrhagic shock, rats received a single injection with one of synthetic heptapeptide SEQ ID NO:5 (AQGVAPG), SEQ ID NO:6 (LQGVAPG), SEQ ID NO:7 (AQGVLPG), SEQ ID NO:8 (LQGVLPG), or 0.9% NaCl solution, as control. Treatment with synthetic heptapeptide SEQ ID NO:5 (AQGVAPG), SEQ ID NO:6 (LQGVAPG), SEQ ID NO:7 (AQGVLPG), SEQ ID NO:8 (LQGVLPG) prevents systemic release of TNF-α and IL-6 and is associated with reduced TNF-α, IL-6 and E-selectin mRNA transcript levels in the liver, with reduced neutrophil infiltration into the liver and is associated with reduced liver damage.
Animals. Adult male specific pathogen-free Wistar rats weighing 350-400 g are used. Rats are housed under barrier conditions at 25° C. with a twelve-hour light/dark cycle, and are allowed food and water ad libitum. The experimental protocol adheres to the rules laid down in national law that serves the implementation of “Guidelines on the protection of experimental animals” by the Council of Europe (1986), Directive 86/609/EC. hCG-related synthetic oligopeptides. Rats are food deprived overnight before the start of the experiment, but are allowed water ad libitum. Rats are anesthetized using a mixture of N2 O/O2 /isoflurane (Pharmachemie B.V., Haarlem, The Netherlands). Body temperature is continuously maintained at 37.5° C. by placing the rats on a thermo controlled “half-pipe” (UNO, Rotterdam, The Netherlands). Endotracheal intubation is performed, and rats are ventilated at 60 breaths per minute with a mixture of N2 O/O2 /isoflurane. Polyethylene tubes (PE-50, Becton Dickinson; St. Michielsgestel, The Netherlands) are flushed with heparin and placed via the right carotid artery in the aorta and in the right internal jugular vein. A 5 cm midline laparotomy is performed and a supra pubic catheter is inserted to monitor urine production. Hemorrhagic shock is induced by blood withdrawal, reducing the circulating blood volume until a mean arterial pressure (MAP) of 40 mmHg is reached. This level of hypotension is maintained for 60 minutes. Thirty minutes after the induction of hemorrhagic shock, rats received a single intravenous (IV) bolus injection of heptapeptide solution or vehicle. Sixty minutes after induction of hemorrhagic shock, rats are resuscitated by four times their shed blood volume over a period of 30 minutes to normalize the MAP, and monitored for another 120 minutes after which they are sacrificed. The rats receive no heparin before or during the experiment. Sham animals are subjected to the same surgical procedure as the hemorrhagic shock animals, but without blood withdrawal and administration of heptapeptide.

Human monocytes = experiment: monocyte chemotaxis in 48-well microchemotaxis chamber; assay type: cell-based; conditions: for chemotactic activity at a stated concentration: 0.1 mmol/L; for induction of monocyte chemotaxis: 10-9 to 10-5 mol/L; for peptide derived chemotactic activity under competition with VGVAPG: competition with SEQ ID NO:19; for monocyte chemotaxis in the presence of glucose, fructose, or mannose: control sugars; for monocyte chemotaxis in the presence of lactose: lactose dissociates the 67-kD ERC; for chemotactic response to f-MLF after preincubation of monocytic cells with peptide: preincubation 30 minutes; for chemotactic potency compared with f-MLF: same concentration of f-MLF
Description: Human monocytes are isolated from freshly drawn blood of healthy volunteers using serial […] gradient centrifugation, as described elsewhere. Cells are cultured for 16 hours in RPMI-1640 media supplemented with 0.5% human serum to become quiescent after isolation. Purity of the cells is >95% as determined by flow cytometry analysis. Monocyte chemotaxis is assayed in a 48-well microchemotaxis chamber (Neuroprobe, Gaithersburg, MD) in serum-free media. Wells in the upper and lower chamber are separated by a polyvinylpyrrolidone-free polycarbonate membrane (pore size 5 µm; Costar). Freshly isolated monocytes at a density of 5 × 10^5/mL are incubated for 2.5 hours with recombinant C-peptide (Sigma), before migrated cells on the bottom face of the filter are stained and counted under the light microscope. Maximal chemotactic activity is measured with […] N -formyl-methionyl-leucyl-phenylalanine (f-MLF; Sigma Chemical Co), and checkerboard analysis is used to distinguish chemotaxis from chemokinesis.
Chemotaxis is tested with SEQ ID NO:12 ([…]), SEQ ID NO:11 ([…]), SEQ ID NO:24 ([…]) or SEQ ID NO:25 ([…]). Exposure of cells to lactose is used to specifically dissociate the 67-kD ERC. Controls for lactose included glucose, fructose, and mannose, none of which affect the 67-kD ERC. In each case, monocytes cells are exposed to the relevant concentrations of SEQ ID NO:12 ([…]), SEQ ID NO:11 ([…]), SEQ ID NO:24 ([…]) or SEQ ID NO:25 ([…]) (10-9 to 10-5 mol/L), for 30 minutes before the chemotaxis assays are started. […] Monocytes in the upper wells of the assay chamber are exposed to varying concentrations of SEQ ID NO:12 ([…]), SEQ ID NO:11 ([…]), SEQ ID NO:24 ([…]) or SEQ ID NO:25 ([…]) for 30 minutes before stimulation by SEQ ID NO:19 (VGVAPG) (0.1 nmol/L - 10 nmol/L) in the lower wells. […] SEQ ID NO:12 ([…]), SEQ ID NO:11 ([…]), SEQ ID NO:24 ([…]), or SEQ ID NO:25 ([…]) derived chemotactic activity is eliminated by competition with Val-Gly-Val-[…]-Pro-Gly (SEQ ID NO:19 (VGVAPG)), a repetitive peptide found in human elastin that binds to cellular elastin receptors. Monocyte chemotaxis in response to both SEQ ID NO:19 (VGVAPG) or SEQ ID NO:12 ([…]), SEQ ID NO:11 ([…]), SEQ ID NO:24 ([…]), or SEQ ID NO:25 ([…]) is abolished in the presence of lactose, a galactosugar that specifically dissociates the 67-kD ERC, but it is unaffected by glucose, fructose, or mannose.

Q: Which “activity as activators of mTOR or inhibitors of autophagy compared with other amino acids” value (mTOR) does the source give for `C[C@H](N)C(=O)O` [L-Alanine] here?
A: more potent

Q: What about the “mTOR associated autophagic inhibitory effects on human cells” value (mTOR) of the same compound?
A: most prominent

Q: Which “activity as activators of mTOR or inhibitors of autophagy compared with other amino acids” value (mTOR) does the source give for `N=C(N)NCCC[C@H](N)C(=O)O` [L-Arginine] here?
A: more potent

Q: Which “activity as activators of mTOR or inhibitors of autophagy compared with other amino acids” value (mTOR) does the source give for `N[C@@H](CCC(=O)O)C(=O)O` [L-Glutamic Acid] here?
A: no or opposite effects

Q: What does the source list for `NCC(=O)O` [L-Glycine]?
A: activity as activators of mTOR or inhibitors of autophagy compared with other amino acids (mTOR): more potent; amino-acid-stimulated mTOR complex 1 activation (mTOR): improves

Q: Which “activity as activators of mTOR or inhibitors of autophagy compared with other amino acids” value (mTOR) does the source give for `CC[C@H](C)[C@H](N)C(=O)O` [L-Isoleucine] here?
A: more potent

Q: With `CC(C)C[C@H](N)C(=O)O` [L-Leucine] as the compound, how does the “activity as activators of mTOR or inhibitors of autophagy compared with other amino acids” value (mTOR) read?
A: more potent

Q: What about the “mTOR associated autophagic inhibitory effects on human cells” value (mTOR) of the same compound?
A: most prominent

Q: Which “activity as activators of mTOR or inhibitors of autophagy compared with other amino acids” value (mTOR) does the source give for `NCCCC[C@H](N)C(=O)O` [L-Lysine] here?
A: no or opposite effects

Q: For `CSCC[C@H](N)C(=O)O` [L-Methionine], which “activity as activators of mTOR or inhibitors of autophagy compared with other amino acids” value (mTOR) is on record?
A: no or opposite effects

Q: For `N[C@@H](Cc1ccccc1)C(=O)O` [L-Phenylalanine], which “activity as activators of mTOR or inhibitors of autophagy compared with other amino acids” value (mTOR) is on record?
A: no or opposite effects

Q: With `O=C(O)[C@@H]1CCCN1` [L-Proline] as the compound, how does the “activity as activators of mTOR or inhibitors of autophagy compared with other amino acids” value (mTOR) read?
A: more potent

Q: And the “mTOR associated autophagic inhibitory effects on human cells” value (mTOR)?
A: most prominent

Q: For `N[C@@H](CO)C(=O)O` [L-Serine], which “activity as activators of mTOR or inhibitors of autophagy compared with other amino acids” value (mTOR) is on record?
A: no or opposite effects

Q: For `C[C@@H](O)[C@H](N)C(=O)O` [L-Threonine], which “activity as activators of mTOR or inhibitors of autophagy compared with other amino acids” value (mTOR) is on record?
A: no or opposite effects

Q: Which “activity as activators of mTOR or inhibitors of autophagy compared with other amino acids” value (mTOR) does the source give for `N[C@@H](Cc1ccc(O)cc1)C(=O)O` [L-Tyrosine] here?
A: no or opposite effects

Q: With `CC(C)[C@H](N)C(=O)O` [L-Valine] as the compound, how does the “activity as activators of mTOR or inhibitors of autophagy compared with other amino acids” value (mTOR) read?
A: more potent

Q: Which results are given for “AQGVAPG (Immunomodulatory peptide) [SEQ ID NO:5]”?
A: beta-cell failure with diabetes development (occurrence of diabetes after the age of 17 weeks) [1]: significantly reduces; TNF-α, IL-6 and E-selectin mRNA transcript levels in the liver [2]: reduced; liver damage [2]: reduced; neutrophil infiltration into the liver [2]: reduced; systemic release of TNF-α and IL-6 [2]: prevents

Q: For “AQGVLPGQ (Immunomodulatory peptide) [SEQ ID NO:11]”, which “chemotactic activity at a stated concentration” value (Human monocytes) is on record?
A: good activity

Q: What about the “induction of monocyte chemotaxis” value (Human monocytes) of the same compound?
A: induce chemotaxis in a concentration-dependent manner

Q: What about the “peptide derived chemotactic activity under competition with VGVAPG” value (Human monocytes) of the same compound?
A: eliminated

Q: What about the “monocyte chemotaxis in the presence of glucose, fructose, or mannose” value (Human monocytes) of the same compound?
A: unaffected

Q: And the “monocyte chemotaxis in the presence of lactose” value (Human monocytes)?
A: abolished

Q: And the “chemotactic response to f-MLF after preincubation of monocytic cells with peptide” value (Human monocytes)?
A: does not alter

Q: And the “chemotactic potency compared with f-MLF” value (Human monocytes)?
A: considerably more potent

Q: Which “chemotactic activity at a stated concentration” value (Human monocytes) does the source give for “AQGVQPGQ (Immunomodulatory peptide) [SEQ ID NO:25]” here?
A: good activity

Q: And the “induction of monocyte chemotaxis” value (Human monocytes)?
A: induce chemotaxis in a concentration-dependent manner

Q: What about the “peptide derived chemotactic activity under competition with VGVAPG” value (Human monocytes) of the same compound?
A: eliminated

Q: What about the “monocyte chemotaxis in the presence of glucose, fructose, or mannose” value (Human monocytes) of the same compound?
A: unaffected

Q: What about the “monocyte chemotaxis in the presence of lactose” value (Human monocytes) of the same compound?
A: abolished

Q: And the “chemotactic response to f-MLF after preincubation of monocytic cells with peptide” value (Human monocytes)?
A: does not alter

Q: What about the “chemotactic potency compared with f-MLF” value (Human monocytes) of the same compound?
A: considerably more potent

Q: What does the source list for “LQGVLPGQ (Immunomodulatory peptide) [SEQ ID NO:12]”?
A: chemotactic activity at a stated concentration (Human monocytes): good activity; induction of monocyte chemotaxis (Human monocytes): induce chemotaxis in a concentration-dependent manner; peptide derived chemotactic activity under competition with VGVAPG (Human monocytes): eliminated; monocyte chemotaxis in the presence of glucose, fructose, or mannose (Human monocytes): unaffected; monocyte chemotaxis in the presence of lactose (Human monocytes): abolished; chemotactic response to f-MLF after preincubation of monocytic cells with peptide (Human monocytes): does not alter; chemotactic potency compared with f-MLF (Human monocytes): considerably more potent

Q: Which results are given for “LQGVQPGQ (Immunomodulatory peptide) [SEQ ID NO:24]”?
A: chemotactic activity at a stated concentration (Human monocytes): good activity; induction of monocyte chemotaxis (Human monocytes): induce chemotaxis in a concentration-dependent manner; peptide derived chemotactic activity under competition with VGVAPG (Human monocytes): eliminated; monocyte chemotaxis in the presence of glucose, fructose, or mannose (Human monocytes): unaffected; monocyte chemotaxis in the presence of lactose (Human monocytes): abolished; chemotactic response to f-MLF after preincubation of monocytic cells with peptide (Human monocytes): does not alter; chemotactic potency compared with f-MLF (Human monocytes): considerably more potent

Q: What does the source list for “VGVAPG (Immunomodulatory peptide) [SEQ ID NO:19, reference compound]”?
A: monocyte migration (Human monocytes; 0.1 nmol/L - 10 nmol/L in the lower wells): concentration-dependent increase; monocyte chemotaxis in the presence of glucose, fructose, or mannose (Human monocytes): unaffected; monocyte chemotaxis in the presence of lactose (Human monocytes): abolished
